Assay results published in PMC3017052, “A Novel Peptide Derived from Human Apolipoprotein E Is an Inhibitor of Tumor Growth and Ocular Angiogenesis” (PLoS ONE, 2011).

Assays:
Format in all cases: cell-based, human
[1] = system: HUVEC; assay: Wound-healing/migration assay; settings: 50 ng/mL VEGF, apoEdp 6–100 µM, three independent experiments; read-out: IC50, inhibition of VEGF-induced HUVEC wound-healing migration
Description: An important angiogenic phenotype of ECs induced by VEGF is cell migration. The major aspects of VEGF action on ECs are its ability to act as a chemoattractant and to stimulate the angiogenic morphogenesis. […] Cell migration was examined after simulation of an artificial wound by perturbation of a cell monolayer using a 1-mL pipette tip. […] (Fig. 2C).
Figure 2 ApoEdp inhibits wound-healing migration in vitro. Monolayers of HUVECs were scraped and incubated in medium containing 50 ng/mL VEGF in the presence or absence of various concentrations of apoEdp. VEGF stimulated the migration of HUVECs in the scraped area. Representative photomicrographs of cells treated with (A) VEGF alone or with (B) VEGF and apoEdp together are shown. Solid lines indicate the initial scraping. […] The bar diagram is the quantitative measurement of cell migration inside the scraped area. The data shown are representative of three independent experiments. ** p<0. 01; and *** p<0.001.
To determine the effect of apoEdp on EC migration induced by VEGF, wound-healing assays were performed using HUVEC cells. Cells were allowed to grow to confluency on 6-well plates and washed twice with PBS. […] Migration of the cells into the wounded area was photographed with an Olympus U-RLF-T microscope and counted. […]

[2] = system: HUVEC; assay: Boyden chamber migration/invasion assay; settings: Boyden chamber transwell, 50 ng/mL VEGF, 16 hr at 37°C, apoEdp 6–100 µM; read-out: IC50, inhibition of VEGF-induced HUVEC migration and invasion
Text: The complex process of new blood vessel formation involves migration and invasion of ECs. The inhibition of EC motility through migration and invasion could thus be expected to affect the angiogenic process. To evaluate the ability of apoEdp in blocking VEGF-induced HUVEC migration and invasion, we used a Boyden chamber transwell assay (Materials and Methods). We quantified the invasion of HUVECs across the transwell. Cells which invaded across the membrane were stained with hematoxylin and eosin stain and counted (Fig. 4A–B). […] All values were normalized to cell numbers of transwells exposed to EBM containing 1% FBS without apoEdp and VEGF.
Figure 4 ApoEdp inhibits endothelial cell invasion. About 4×10^4 HUVECs were placed into each insert of Boyden chamber ([…]) (BD Biosciences) of 24-well transwell plate. The bottom chambers were filled with 600 µL medium supplemented with 50 ng/mL VEGF. The top chamber was seeded with approximately 4×10^4 HUVEC cells/well in 100 µL containing different concentrations of apoEdp and incubated at 37°C for 16 hs. HUVEC cells were then fixed and stained with H&E and counted under the microscope. […]
Boyden chamber migration/invasion assays were performed. […] Transwell invaded cells were counted using an inverted microscope. Three independent areas per filter were counted, and the mean ± SEM number of migrated cells was calculated.

[3] = system: MDA-MB-231 cells; settings: 48 h
Description: To confirm that apoEdp affects cell survival, cell viability was determined using the cell titer 96®AQuous One solution cell proliferation kit. ApoEdp treatment of HUVECs induced a dose-dependent inhibition of cell viability (Fig. 1A). […] To determine whether apoEdp suppresses tumor growth by directly affecting tumor cells, we performed a cell viability assay using human breast cancer MDA-MB-231 cell line in vitro and cell titer 96®AQuous One solution cell proliferation kit.
Figure 1 ApoEdp affects HUVEC survival but not MDA-MB-231. A. HUVEC: ApoEdp has a significant effect on VEGF-induced HUVEC viability. Cells were treated with apoEdp at the indicated concentrations and incubated with constant 50 ng/mL VEGF for 48 hr. All values were normalized to cell control of no VEGF and no apoEdp. Cell viability values (mean ± SEM) are expressed as % of the value of the VEGF control. B. MDA-MB-231: ApoEdp has no effect on MDA-MB-231viability. ApoEdp has no significant effect on MDA-MB-231 survival. […] Cell viability values (mean ± SEM) are expressed as % of the value of the control (untreated cells). […]
Cell survival studies were carried out using the CellTiter96 AQueous One solution cell survival assay. […] The cells were incubated for 48 hr and then the AQueous One solution was added to the samples and measured at 490 nm.

Ac-LRKLRKRLLLRKLRKRLL-NH2 [apoEdp]
IC50 [1]: ~21.5 µM | IC50 [2]: ~31.5 µM | 50% cytotoxic dose (CC50), MDA-MB-231 viability [3]: > 300 µM
